Tests used:
Assay type in all cases: in vivo, mouse
Settings in all cases: intraperitoneal; L-dopa 2 and 20 mg/kg with benserazide, tested 40 minutes after injection; apomorphine 10 mg/kg, tested 5 minutes after
hR1441G LRRK2 mice [1] = experiment: Open field test, pharmacological rescue
Description: (§1) hR1441G LRRK2 mice and WT littermates were kept in a 12:12 hour light/dark cycle in a temperature and humidity controlled room. All behavioral tests were conducted in the dark phase after two hours of the light/dark switch. In home cage activity test, hR1441G LRRK2 mice and wild type littermates were video taped in home cage for spontaneous ambulatory activity without any disturbance. In cylinder test, hR1441G LRRK2 mice were individually transferred into a 12 cm diameter cylinder and video taped with a reflective mirror for 5 minutes. Vertical rearing and horizontal limb steps were counted. In open field test, mice were transferred into a 45 cm×45 cm box for 10 minutes, video taped and analyzed by Ethovision, 3.0 from Noldus. The locomotor activity was measured by total distance and the number of tiles that the mice traveled.
(§2) To address whether the loss of movement in hR1441G LRRK2 mice originated from a defect in the dopaminergic system, a pharmacological approach was applied. hR1441G LRRK2 mice and wild type littermates were injected with saline control or methyl L-dopa hydrochloride (Sigma, St. Louis, USA) in 0.9% NaCl with benserazide 6.5 mg/kg (Sigma). Two dosages of methyl L-dopa hydrochloride (2 mg/kg and 20 mg/kg) were tested. 0.3 ml of intraperitoneal injections was administered to each animal. Behavioral testing were performed 40 minutes after the injections. […]

[2] = tested on: hR1441G LRRK2 BAC mice (TG); experiment: Cylinder test (rearing), pharmacological rescue
Description: FIGS. 9A-9B illustrate robust locomotor deficit in hR1441G LRRK2 BAC mice was rescued by L-Dopa and apomorphine. Wild type littermates (WT) and hR1441G LRRK2 BAC mice (TG) were tested for 3 min in the cylinder test. Rearing was counted as an indication of motor activity. (9A) An age dependent decline in rearing was detected. At 3, 6 and 10 months of age, WT mice reared an average 50.4±SE2.13, 51.4±SE1.28, 50.2.4±SE2.13 times, while TG mice reared 49.4±SE2.13, […] and zero times respectively. At 6 and 10 months of age, TG mice had significant reductions (P<0.005, P<0.001 respectively). (9B) This robust deficit in TG mice was rescued by 20 mg/kg L-Dopa with […] Benseramide. In saline injection controls, WT and TG mice reared 50.4±SE2.48 and 0.8±SE0.37 in 3 minutes, whereas in L-dopa injection, WT and TG mice reared 47.2±SE1.65 and 28.4±SE1.43.
hR1441G LRRK2 mice and WT littermates were kept in a 12:12 hour light/dark cycle in a temperature and humidity controlled room. All behavioral tests were conducted in the dark phase after two hours of the light/dark switch. […] Vertical rearing and horizontal limb steps were counted. In open field test, mice were transferred into a 45 cm×45 cm box for 10 minutes, video taped and analyzed by Ethovision, 3.0 from Noldus. The locomotor activity was measured by total distance and the number of tiles that the mice traveled. […]

hR1441G LRRK2 mice [3] = experiment: Home cage activity test, pharmacological rescue
Description: as §1, §2

CN1CCc2cccc3c2[C@H]1Cc1ccc(O)c(O)c1-3 [apomorphine]
significantly rescued: Rescue from motor deficits in the open field test (hR1441G LRRK2 mice [1]) | Rescue from motor deficits in the cylinder test [2] | Rescue from motor deficits in home cage activities (hR1441G LRRK2 mice [3])
